Data published in patent publication US20200254065A1, “LONG-ACTING GLP-2 ANALOGS” (OPKO Biologics Ltd., priority 2019, published 2020).
Like-named read-outs stand apart in the source and are kept apart here. Marks after values point to notes of the source that are not given here. Each block holds one molecule with its values, some of them ahead of it. Square brackets hold non-standard residues; d marks the D form. Ends that are not written are not given here. Peptide text beside a SMILES is read from it. Nle = CCCC[C@H](N)C(=O)O

Experiments:
[1] = tested on: intestine epithelium (crypts plus villi); assay: Crypts plus villi length, histopathology of small intestine; format: in vivo, SD rats; details: for Percent increase of Crypts plus Villi length over vehicle (FIG. 1): injected once at 2 mg/kg peptide dose, 6th day
Experimental: In addition to PEG30-FMS-V4 and PEG30-Fmoc-V4 that have been pharmacology evaluated by small intestinal weight evaluation (As shown in Example 5), four other reversible PEGylated variant 4 (“V4”) conjugates and two reversible linker-V4 conjugates were synthesized. All the above were injected to 6 normal SD rats/group once at 2 mg/kg (peptide dose), while on the 6th day, animals were scarified, and the small intestine was weighted followed by histopathology evaluation. […] Therefore, slices from three areas of the intestine (duodenum, jejunum and ilium) were stained with hematoxylin and eosin and at least 7 Crypts+Villi length/slice were measured. The averaged Villi+Crypt length of each treatment group (n=6) was compared to the vehicle group (negative control) and calculated as percentage increase over vehicle. […]
An additional study to evaluate the efficacy and the longevity of V4 and Cys-FMS-V4 was conducted (Study reference 15204) in which the animals were sacrificed on Days 6 (N=6), 10 (N=4) and 14 (N=4). This experiment measured the pharmacological response compared to the commercially approved SBS treatment drug Gattex. In addition, two new conjugates were tested by conjugating V4 to reduced OSu-linker and Cys-FMS-V4 purified from resin. The animals were injected with a single SC injection at Day 1 with 2 mg/kg peptide content of V4, Cys-FMS-V4, FMS-OSu-V4, Apraglutide and Glepaglutide while Gattex was SC injected daily at 2.5 mg/kg peptide content. […]

[2] = tested on: small intestine; assay: Intestine weight model in rats; format: in vivo, SD rats; details: for Avg. small intestine weight (gr) / Small intestine weight increase over vehicle (%): normal SD rats, injected once at 2 mg/kg peptide dose, 6th day; for Small intestine weight increase over vehicle (%): MAL-FMS-V4 compared to Vehicle 2
Experimental: In the pharmacology study, the conjugates were injected subcutaneously twice, on days 1 and 3 at 1 mg/kg (peptide dose) and intestine weight was performed on day 6. In addition to the PEGylated conjugates, GLP-2-Gly2 was injected at the same dose and regimen for comparison. The average of the intestine weight of each group was compared to that of the vehicle group.
In a different study, several of the PEGylated teduglutide were injected as a single dose at 1 mg/kg and the intestine weight performed on day 6.
Pharmacology and pharmacokinetic studies were performed with the most promising GLP-2 variants to evaluate their efficacy and longevity, respectively. The intestine weight model in rats was conducted to evaluate efficacy, by measuring percent increase of the intestine weight of treated animals over the vehicle group. In this study, the peptides were injected twice, on days 1 and 3 at 1 mg/kg and the intestine weight was conducted on day 6.
PEG20-FMS-V6, PEG20-Fmoc-V6 and PEG40-FMS-V6 were injected once at 1 mg/kg dose on day 1, while group D was also injected twice on days 1 & 3 at 1 mg/kg. The intestine weight was performed on day 6.
Three different reversible PEGylated GLP-2 variants using mutated peptide #4 were injected at 2 mg/kg (peptide dose), once every 6 days for 12 days. On the 12th day the intestine was weighted and compared to the control group. PEG30-FMS-V4 was injected at 0.5 mg/kg as well to evaluate the efficacy dose range.
In addition to PEG30-FMS-V4 and PEG30-Fmoc-V4 that have been pharmacology evaluated by small intestinal weight evaluation (As shown in Example 5), four other reversible PEGylated variant 4 (“V4”) conjugates and two reversible linker-V4 conjugates were synthesized. All the above were injected to 6 normal SD rats/group once at 2 mg/kg (peptide dose), while on the 6th day, animals were scarified, and the small intestine was weighted followed by histopathology evaluation. […] Therefore, slices from three areas of the intestine (duodenum, jejunum and ilium) were stained with hematoxylin and eosin and at least 7 Crypts+Villi length/slice were measured. The averaged Villi+Crypt length of each treatment group (n=6) was compared to the vehicle group (negative control) and calculated as percentage increase over vehicle.
Additional studies were conducted to evaluate the efficacy of the V4 peptide and the reversible MAL-FMS-V4. The long acting effect of V4 and the conjugates were evaluated at Day 6 and Day 10 following treatment (Study reference 15203). All test groups (n=9) were injected SC with 2 mg/kg peptide content at Day 1. At Days 6 and 10, animals were sacrificed and the small intestine underwent histopathology evaluation (6 animals for Day 6, 3 animals for Day 10). FIGS. 12 and 13 show the pharmacology effect of different V4 conjugates and Apraglutide and Glepaglutide as measured by the percent increase of small intestine weight and crypts plus villi length over vehicle, respectively.
To further evaluate the pharmacology efficacy of V4 and Cys-FMS-V4, an experiment was performed to test their acute and prolonged effect on the small intestine (Study reference 15205). In addition, V4 and Cys-FMS-V4 were administrated as a single SC injection on Day 1 at 3 different doses (0.5, 2.0 or 8.0 mg/kg peptide content, 6 rats per group) to assess the dose dependence effect. The pharmacological effect on small intestine weight and villi plus crypts length was measured at Days 3, 7 and 14, and the results are presented in FIGS. 15 and 16. […] It should be noted that this acute response was higher for V4 compared to Cys-FMS-V4 at all 3 dose levels.

[3] = biological target: T1, GLP-2 receptor (UniProt O95838 1-553, limits assumed); assay: cell-based or functional assay
T1 sequence (looked up): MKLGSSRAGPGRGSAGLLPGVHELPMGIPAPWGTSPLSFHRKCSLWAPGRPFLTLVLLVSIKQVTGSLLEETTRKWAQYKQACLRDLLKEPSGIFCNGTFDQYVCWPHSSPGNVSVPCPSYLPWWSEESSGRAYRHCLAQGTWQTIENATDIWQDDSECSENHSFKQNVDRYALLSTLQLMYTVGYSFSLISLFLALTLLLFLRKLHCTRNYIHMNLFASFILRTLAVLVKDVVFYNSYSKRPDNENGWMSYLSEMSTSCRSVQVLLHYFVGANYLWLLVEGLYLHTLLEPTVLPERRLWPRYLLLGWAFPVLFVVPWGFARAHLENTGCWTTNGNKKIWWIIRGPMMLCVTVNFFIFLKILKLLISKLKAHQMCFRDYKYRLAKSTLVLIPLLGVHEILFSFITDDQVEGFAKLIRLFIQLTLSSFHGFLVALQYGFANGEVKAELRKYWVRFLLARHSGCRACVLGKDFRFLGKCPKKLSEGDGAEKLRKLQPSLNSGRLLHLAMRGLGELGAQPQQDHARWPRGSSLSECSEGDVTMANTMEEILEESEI

[4] = biological target: T2, GLP-2 receptor (Homo sapiens, UniProt O95838); assay: GLP-2 receptor Cell Based Assay (CBA); details: Table 8; average of 3 independent CBA
T2 sequence (O95838 1-553): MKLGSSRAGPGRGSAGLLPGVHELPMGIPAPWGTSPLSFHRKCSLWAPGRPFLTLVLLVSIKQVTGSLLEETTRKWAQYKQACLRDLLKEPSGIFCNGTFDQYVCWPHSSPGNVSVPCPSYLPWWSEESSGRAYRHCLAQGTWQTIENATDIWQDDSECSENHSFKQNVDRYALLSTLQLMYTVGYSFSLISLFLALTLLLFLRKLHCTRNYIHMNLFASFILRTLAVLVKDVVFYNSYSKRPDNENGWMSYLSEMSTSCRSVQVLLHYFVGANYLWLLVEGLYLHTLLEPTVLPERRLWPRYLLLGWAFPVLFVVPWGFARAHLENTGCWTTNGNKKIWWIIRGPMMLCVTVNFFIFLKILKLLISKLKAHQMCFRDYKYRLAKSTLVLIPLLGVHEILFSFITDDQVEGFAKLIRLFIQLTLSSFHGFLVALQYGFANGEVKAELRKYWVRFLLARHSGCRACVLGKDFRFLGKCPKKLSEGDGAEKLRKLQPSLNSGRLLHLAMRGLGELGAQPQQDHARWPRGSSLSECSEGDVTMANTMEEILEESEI
Experimental: Evaluation of in vitro binding affinity of the different peptides was assessed by using Cell Based Assay (CBA) in the presence of escalating doses of the different peptides.

[5] = biological target: T1, GLP-2 receptor; assay: cell-based or functional assay; remark: listed apart in the source
[6] = biological target: GLP-2 receptor (UniProt O95838); assay: cell-based or functional assay
[7] = 2 mg/kg peptide dose once every 6 days for 12 days, weighed on 12th day

Molecule: PEG30-Fmoc-V4 (HGEGSFSDE[Nle]NTILDLLAARDFINWLIQTKITD-NH2; also: PEG30-Fmoc conjugate, place not given here)
Percent increase of Crypts plus Villi length over vehicle (FIG. 1) [1]: better effect on the intestine epithelium than the V4 peptide | Average Intestine weight (gr) [2, 7]: 7.8 gr | Increase of intestine weight over vehicle (%) [2, 7]: 29% | Avg. small intestine weight (gr) [2]: 7.0 gr | Small intestine weight increase over vehicle (%) [2]: 36.0** %

EC50 (nM) Average, GLP2-receptor CBA, 3 independent assays [3]: 0.8 nM | EC50 Ratio to Teduglutide, CBA [3]: 1.8 fold | EC50 Ratio to Teduglutide, GLP2-receptor CBA [3]: 1.3 fold | EC50 Ratio to Variant 4, GLP2-receptor CBA [3]: 0.7 fold | EC50 [nM], Cell Based Assay (CBA), cells overexpressing the GLP-2 receptor [3]: 10.1 nM
Molecule: GLP2 DiscoverX Kit (peptide)

Molecule: PEG30-MeOF-V4 (HGEGSFSDE[Nle]NTILDLLAARDFINWLIQTKITD-NH2; also: PEG30-MeOF conjugate, place not given here)
Percent increase of Crypts plus Villi length over vehicle (FIG. 1) [1]: better effect on the intestine epithelium than the V4 peptide | Avg. small intestine weight (gr) [2]: 7.0 gr | Small intestine weight increase over vehicle (%) [2]: 39.0** %

Molecule: MAL-FMS-V4 (HGEGSFSDE[Nle]NTILDLLAARDFINWLIQTKITD-NH2; also: MAL-FMS conjugate, place not given here)
Percent increase of Crypts+Villi length over vehicle (FIG. 3) ([1]; Study 15201, 0.5 and 2 mg/kg peptide dose once, 6 days after injection): dose dependent pharmacology effect on the intestine epithelium | Percent increase of Crypts plus Villi length over vehicle (FIG. 1) [1]: showed the most pronounce effect on the intestine epithelium | Avg. small intestine weight (gr) [2]: 7.0 gr

EC50 Ratio to Teduglutide [4]: 2.9 | EC50 Ratio to Variant 4 [4]: 1.6
Molecule: CCCC[C@H](NC(=O)[C@H](CCC(=O)O)NC(=O)[C@H](CC(=O)O)NC(=O)[C@H](CO)NC(=O)[C@H](Cc1ccccc1)NC(=O)[C@H](CO)NC(=O)CNC(=O)[C@H](CC(=O)O)NC(=O)CNC(=O)[C@@H](N)Cc1c[nH]cn1)C(=O)N[C@H](Cc1ccccc1)C(=O)N[C@H](C(=O)N[C@H](C(=O)N[C@@H](CC(C)C)C(=O)N[C@@H](CC(=O)O)C(=O)N[C@@H](CC(C)C)C(=O)N[C@@H](CC(C)C)C(=O)N[C@@H](C)C(=O)N[C@@H](C)C(=O)N[C@@H](CCCNC(=N)N)C(=O)N[C@@H](CC(=O)O)C(=O)N[C@@H](Cc1ccccc1)C(=O)N[C@H](C(=O)N[C@@H](CC(N)=O)C(=O)N[C@@H](Cc1c[nH]c2ccccc12)C(=O)N[C@@H](CC(C)C)C(=O)N[C@H](C(=O)N[C@@H](CCC(N)=O)C(=O)N[C@H](C(=O)N[C@@H](CCCCN)C(=O)N[C@H](C(=O)N[C@H](C(=O)N[C@@H](CC(=O)O)C(N)=O)[C@@H](C)O)[C@@H](C)CC)[C@@H](C)O)[C@@H](C)CC)[C@@H](C)CC)[C@@H](C)CC)[C@@H](C)O [Variant 1, reference compound] (H-HGDGSFSDE[Nle][dF]TILDLLAARDFINWLIQTKITD-NH2)
Crypts plus villi length percent increase over vehicle (FIG. 13) ([1]; Study 15203, single SC 2 mg/kg on Day 1, Days 6 and 10): moderate effect that was higher than Glepaglutide and the PEG30-FMS-V4 conjugate

EC50 Ratio to Teduglutide, CBA [5]: 2.4 fold | EC50 [nM], Cell Based Assay (CBA), cells overexpressing the GLP-2 receptor [5]: 13.6 nM
B1: GLP-2 Variant #5 (peptide)
peptide: H-HGEGSFSDE[Nle]NTILDYLAARDFINWLIQTKITD-NH2
SMILES: CCCC[C@H](NC(=O)[C@H](CCC(=O)O)NC(=O)[C@H](CC(=O)O)NC(=O)[C@H](CO)NC(=O)[C@H](Cc1ccccc1)NC(=O)[C@H](CO)NC(=O)CNC(=O)[C@H](CCC(=O)O)NC(=O)CNC(=O)[C@@H](N)Cc1c[nH]cn1)C(=O)N[C@@H](CC(N)=O)C(=O)N[C@H](C(=O)N[C@H](C(=O)N[C@@H](CC(C)C)C(=O)N[C@@H](CC(=O)O)C(=O)N[C@@H](Cc1ccc(O)cc1)C(=O)N[C@@H](CC(C)C)C(=O)N[C@@H](C)C(=O)N[C@@H](C)C(=O)N[C@@H](CCCNC(=N)N)C(=O)N[C@@H](CC(=O)O)C(=O)N[C@@H](Cc1ccccc1)C(=O)N[C@H](C(=O)N[C@@H](CC(N)=O)C(=O)N[C@@H](Cc1c[nH]c2ccccc12)C(=O)N[C@@H](CC(C)C)C(=O)N[C@H](C(=O)N[C@@H](CCC(N)=O)C(=O)N[C@H](C(=O)N[C@@H](CCCCN)C(=O)N[C@H](C(=O)N[C@H](C(=O)N[C@@H](CC(=O)O)C(N)=O)[C@@H](C)O)[C@@H](C)CC)[C@@H](C)O)[C@@H](C)CC)[C@@H](C)CC)[C@@H](C)CC)[C@@H](C)O

EC50 (nM) Average, GLP2-receptor CBA, 3 independent assays [6]: 5.4 nM | EC50 Ratio to Teduglutide, GLP2-receptor CBA [6]: 9.4 fold | EC50 Ratio to Variant 4, GLP2-receptor CBA [6]: 5.3 fold
Molecule: HGEGTFSSELATILDALAARDFIAWLIATKITDKKKKKK-NH2 [Glepaglutide (V10)]

EC50 (nM) Average, GLP2-receptor CBA, 3 independent assays [6]: 1.7 nM | EC50 Ratio to Teduglutide, GLP2-receptor CBA [6]: 2.9 fold | EC50 Ratio to Variant 4, GLP2-receptor CBA [6]: 1.6 fold
Molecule: HGDGSFSDE[Nle][dF]TILDLLAARDFINWLIQTKITD-NH2 [Apraglutide (V1)]
